System: Coxsackie B3 virus (strain Nancy)
Assay: microbe, parasite or virus in culture
Assay type: cell-based
Conditions: Enterovirus B, B3, Vero, 48 h, read-out: IC50 (50% inhibitory concentration)

For `NC(=O)c1ncn([C@@H]2O[C@H](CO)[C@@H](O)[C@H]2O)n1` [Ribavirin], the IC50 was 56 ± 8 µM.

— PMC8113020 (Chemistry of Heterocyclic Compounds, 2021)
